# Experimental data taken from patent publication US20230045421A1 (priority 2018, published 2023).
# Test system: HBV rcDNA
# Assay: HepDE19 assay with bDNA quantitation of HBV rcDNA
# Type: cell-based, hepatitis B virus
# Settings: HepDE19 assay, inhibition of formation of rcDNA; read-out: DE-19bDNA EC50
# Method in brief: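 Compounds, top concentration 25 μM in 8-point duplicate series, were applied to Tet-free HepDE19 cultures for 7 days. Branched-DNA quantitation of HBV rcDNA against untreated wells gave EC50 and EC90 by 4-parameter fit. Viability (CC50) came from ATP luminescence on parallel plates incubated 4 days.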
row,SMILES,EC50 [µM]
1,"CC(c1c[nH]c(=O)c2ccccc12)N(CCC#N)C(=O)Nc1ccc(F)c(Cl)c1 (single isomer, unassigned) [Compound 112, 3-(3-Chloro-4-fluorophenyl)-1-(2-cyanoethyl)-1-(1-(1-oxo-1,2-dihydroisoquinolin-4-yl)ethyl)urea]",2.8
2,"CC(=O)NCCN(C(=O)Nc1ccc(F)c(Cl)c1)C(C)c1c[nH]c(=O)c2ccccc12 (single isomer, unassigned) [Compound 139, N-(2-(3-(3-Chloro-4-fluorophenyl)-1-(1-(1-oxo-1,2-dihydroisoquinolin-4-yl)ethyl)ureido)ethyl)acetamide]",0.46
3,"CC(c1c[nH]c(=O)c2ccccc12)N(CC[C@@H](C)O)C(=O)Nc1ccc(F)c(Cl)c1 (single isomer, unassigned) [Compound 212]",0.02
4,"CC(c1c[nH]c(=O)c2ccccc12)N(CC1COC(C)(C)OC1)C(=O)Nc1ccc(F)c(Cl)c1 (single isomer, unassigned) [Compound 273, 3-(3-Chloro-4-fluorophenyl)-1-((2,2-dimethyl-1,3-dioxan-5-yl)methyl)-1-(1-(1-oxo-1,2-dihydroisoquinolin-4-yl)ethyl)urea]",0.17
5,"CC(c1c[nH]c(=O)c2ccc(Cl)cc12)N(C)C(=O)Nc1ccc(F)c(Cl)c1 (single isomer, unassigned) [Compound 171, 1-(1-(6-Chloro-1-oxo-1,2-dihydroisoquinolin-4-yl)ethyl)-3-(3-chloro-4-fluorophenyl)-1-methylurea]",5.4
6,"CCCCN(C(=O)Nc1ccc(F)c(Cl)c1)C(C)c1cnc(OC)c2ccccc12 (single isomer, unassigned) [Compound 61, 1-Butyl-3-(3-chloro-4-fluorophenyl)-1-(1-(1-methoxyisoquinolin-4-yl)ethyl)urea]",0.08
7,"CC(c1c[nH]c(=O)c2cc(F)ccc12)N(C)C(=O)Nc1ccc(F)c(Cl)c1 (single isomer, unassigned) [Compound 263, 3-(3-Chloro-4-fluorophenyl)-1-(1-(7-fluoro-1-oxo-1,2-dihydroisoquinolin-4-yl)ethyl)-1-methylurea]",0.78
8,"COc1ncc(C(CCO)NC(=O)Nc2ccc(F)c(Cl)c2)c2ccccc12 (single isomer, unassigned) [Compound 78, 1-(3-Chloro-4-fluorophenyl)-3-(3-hydroxy-1-(1-methoxyisoquinolin-4-yl)propyl)urea]",24
9,"CC(c1cnc(NCc2cn[nH]n2)c2ccccc12)N(C)C(=O)Nc1ccc(F)c(Cl)c1 (single isomer, unassigned) [Compound 262, 1-(1-(1-(((2H-1,2,3-Triazol-4-yl)methyl)amino)isoquinolin-4-yl)ethyl)-3-(3-chloro-4-fluorophenyl)-1-methylurea]",0.15
10,"CC(c1cn(C)c(=O)c2ccccc12)N(C)C(=O)Nc1ccc(F)c(Cl)c1 (single isomer, unassigned) [Compound 182, 3-(3-Chloro-4-fluorophenyl)-1-methyl-1-(1-(2-methyl-1-oxo-1,2-dihydroisoquinolin-4-yl)ethyl)urea]",0.03
11,"CC(c1c[nH]c(=O)c2ccccc12)N(CCS(C)(=O)=O)C(=O)Nc1ccc(F)c(Cl)c1 (single isomer, unassigned) [Compound 108, 3-(3-Chloro-4-fluorophenyl)-1-(2-(methylsulfonyl)ethyl)-1-(1-(1-oxo-1,2-dihydroisoquinolin-4-yl)ethyl)urea]",0.05

# Same assay, conditions: HepDE19 assay, inhibition of formation of relaxed circular DNA (rcDNA), bDNA quantitation; read-out: DE-19bDNA EC50
row,SMILES,EC50 [µM]
1,"CCN(C(=O)Nc1ccc(F)cc1)C(C)c1c[nH]c(=O)c2cc(F)c(F)cc12 (single isomer, unassigned) [Compound 402, 1-(1-(6,7-Difluoro-1-oxo-1,2-dihydroisoquinolin-4-yl)ethyl)-1-ethyl-3-(4-fluorophenyl)urea]",10
2,"CC(c1c[nH]c(=O)c2cc(F)c(F)cc12)N(C)C(=O)NCc1ccc(F)c(F)c1 (single isomer, unassigned) [Compound 476, 1-(1-(6,7-Difluoro-1-oxo-1,2-dihydroisoquinolin-4-yl)ethyl)-3-(3,4-difluorobenzyl)-1-methylurea]",0.43
3,"CNC(=O)c1ncc(C(C)N(C)C(=O)Nc2ccc(F)c(Cl)c2)c2ccccc12 (single isomer, unassigned) [Compound 317, 4-(1-(3-(3-Chloro-4-fluorophenyl)-1-methylureido)ethyl)-N-methylisoquinoline-1-carboxamide]",0.077
4,"CC(c1c[nH]c(=O)c2ccc(F)cc12)N(CC(CO)CO)C(=O)Nc1ccc(F)c(Cl)c1 (single isomer, unassigned) [Compound 296, 3-(3-Chloro-4-fluorophenyl)-1-(1-(6-fluoro-1-oxo-1,2-dihydroisoquinolin-4-yl)ethyl)-1-(3-hydroxy-2-(hydroxymethyl)propyl)urea]",0.04
5,"CC(c1c[nH]c(=O)c2c(F)cccc12)N(CCCO)C(=O)Nc1ccc(F)c(Cl)c1 (single isomer, unassigned) [Compound 366, 3-(3-Chloro-4-fluorophenyl)-1-(1-(8-fluoro-1-oxo-1,2-dihydroisoquinolin-4-yl)ethyl)-1-(3-hydroxypropyl)urea]",11
6,"CC(c1cnc(C#N)c2ccccc12)N(C)C(=O)Nc1ccc(F)c(Cl)c1 (single isomer, unassigned) [Compound 337, 3-(3-Chloro-4-fluorophenyl)-1-(1-(1-cyanoisoquinolin-4-yl)ethyl)-1-methylurea]",0.25
7,"CC(c1c[nH]c(=O)c2c(F)c(F)ccc12)N(CCCO)C(=O)Nc1ccc(F)c(Cl)c1 (single isomer, unassigned) [Compound 334, 3-(3-Chloro-4-fluorophenyl)-1-(1-(7,8-difluoro-1-oxo-1,2-dihydroisoquinolin-4-yl)ethyl)-1-(3-hydroxypropyl)urea]",2
8,"CC(c1c[nH]c(=O)c2ccccc12)N(Cc1cscn1)C(=O)Nc1ccc(F)c(Cl)c1 (single isomer, unassigned) [Compound 313, 3-(3-Chloro-4-fluorophenyl)-1-(1-(1-oxo-1,2-dihydroisoquinolin-4-yl)ethyl)-1-(thiazol-4-ylmethyl)urea]",0.4
9,"CC(c1cnc(S(C)(=O)=O)c2ccccc12)N(C)C(=O)Nc1ccc(F)c(Cl)c1 (single isomer, unassigned) [Compound 314, 3-(3-Chloro-4-fluorophenyl)-1-methyl-1-(1-(1-(methylsulfonyl)isoquinolin-4-yl)ethyl)urea]",8.3
10,"CC(c1c[nH]c(=O)c2cc(F)c(F)cc12)N(C)C(=O)Nc1ccc(F)c(F)c1 (single isomer, unassigned) [Compound 409, 1-(1-(6,7-Difluoro-1-oxo-1,2-dihydroisoquinolin-4-yl)ethyl)-3-(3,4-difluorophenyl)-1-methylurea]",0.013

# Same assay, conditions: Hepatitis B virus, HepDE19, HepDE19 assay, inhibition of formation of rcDNA; read-out: DE-19bDNA EC50
row,SMILES,EC50 [µM]
1,"Cc1cc(NC(=O)N(CC(F)F)[C@H](C)c2c[nH]c(=O)c3ccccc23)ccc1F [Compound 97, (R)-3-(3-Methyl-4-fluorophenyl)-1-(2,2-difluoroethyl)-1-(1-(1-oxo-1,2-dihydroisoquinolin-4-yl)ethyl)urea]",0.11
2,"CNC(=O)CCN(C(=O)Nc1ccc(F)c(Cl)c1)C(C)c1c[nH]c(=O)c2ccccc12 (racemic) [Compound 104, 3-(3-(3-chloro-4-fluorophenyl)-1-(1-(1-oxo-1,2-dihydroisoquinolin-4-yl)ethyl)ureido)-N-methylpropanamide]",0.57
3,"CC(c1c[nH]c(=O)c2ccccc12)N(C[C@H]1CC[C@@H](O)CC1)C(=O)Nc1ccc(F)c(Cl)c1 (mixture of isomers) [Compound 225, cis-3-(3-Chloro-4-fluorophenyl)-1-((4-hydroxycyclohexyl)methyl)-1-(1-(1-oxo-1,2-dihydroisoquinolin-4-yl)ethyl)urea]",0.08
4,"COc1ncc(CN(Cc2ccccc2)C(=O)Nc2ccc(F)c(Cl)c2)c2ccccc12 [Compound 48, 1-Benzyl-3-(3-chloro-4-fluorophenyl)-1-((1-methoxyisoquinolin-4-yl)methyl)urea]",2.1
5,"C[C@@H](c1c[nH]c(=O)c2ccccc12)N(C)C(=O)Nc1ccc(F)c(Cl)c1 [Compound 13, 3-(3-Chloro-4-fluorophenyl)-1-methyl-1-(1-(1-oxo-1,2-dihydroisoquinolin-4-yl)ethyl)urea]",4.7
6,"CC(c1c[nH]c(=O)c2ccccc12)N(Cc1nnc[nH]1)C(=O)Nc1ccc(F)c(Cl)c1 (single isomer, unassigned) [Compound 268, 1-((1H-1,2,4-Triazol-5-yl)methyl)-3-(3-chloro-4-fluorophenyl)-1-(1-(1-oxo-1,2-dihydroisoquinolin-4-yl)ethyl)urea]",2.6

# Same assay, conditions: Hepatitis B virus, HepDE19, read-out: DE-19bDNA EC50 (μM), HepDE19 assay, inhibition of formation of rcDNA
row,SMILES,EC50 [µM]
1,"C[C@H](c1c[nH]c(=O)c2ccccc12)N(C)C(=O)Nc1ccc(F)c(C#N)c1 [Compound 98, (R)-3-(3-Cyano-4-fluorophenyl)-1-methyl-1-(1-(1-oxo-1,2-dihydroisoquinolin-4-yl)ethyl)urea]",0.16

# Same assay, conditions: read-out: DE-19bDNA EC50; HepDE19 assay, inhibition of formation of rcDNA
row,SMILES,EC50 [µM]
1,"CCC(c1c[nH]c(=O)c2ccccc12)N(CC)C(=O)Nc1ccc(F)c(Cl)c1 (single isomer, unassigned) [Compound 39, 3-(3-Chloro-4-fluorophenyl)-1-ethyl-1-(1-(1-oxo-1,2-dihydroisoquinolin-4-yl)propyl)urea]",14

# Same assay, conditions: read-out: DE-19bDNA EC50; HepDE19 assay, inhibition of formation of relaxed circular DNA (rcDNA), bDNA quantitation
row,SMILES,EC50 [µM]
1,"CC(c1c[nH]c(=O)c2c(F)c(F)ccc12)N(C)C(=O)Nc1cccc(F)c1 (single isomer, unassigned) [Compound 455, 1-(1-(7,8-Difluoro-1-oxo-1,2-dihydroisoquinolin-4-yl)ethyl)-3-(3-fluorophenyl)-1-methylurea]",6.3
